# Read-outs that look alike come from different tables or passages of the source.
# Legend:
# [1] = test system: rat primary hepatocytes
# [2] = target: T1, mitochondrial respiratory chain complex II (Rattus norvegicus, UniProt P21913+Q641Z9+Q6PCT8+Q920L2); experiment: Respiratory chain complex II activity; assay type: biochemical; conditions: tested up to 100μM
# T1 construct: Submitochondrial particles were prepared by subjecting the intact rat mitochondria, isolated as described above, to three successive freeze–thaw cycles; from tissue; host or cells: rat liver mitochondria (submitochondrial particles)
# T1 sequence (Q920L2 35-656): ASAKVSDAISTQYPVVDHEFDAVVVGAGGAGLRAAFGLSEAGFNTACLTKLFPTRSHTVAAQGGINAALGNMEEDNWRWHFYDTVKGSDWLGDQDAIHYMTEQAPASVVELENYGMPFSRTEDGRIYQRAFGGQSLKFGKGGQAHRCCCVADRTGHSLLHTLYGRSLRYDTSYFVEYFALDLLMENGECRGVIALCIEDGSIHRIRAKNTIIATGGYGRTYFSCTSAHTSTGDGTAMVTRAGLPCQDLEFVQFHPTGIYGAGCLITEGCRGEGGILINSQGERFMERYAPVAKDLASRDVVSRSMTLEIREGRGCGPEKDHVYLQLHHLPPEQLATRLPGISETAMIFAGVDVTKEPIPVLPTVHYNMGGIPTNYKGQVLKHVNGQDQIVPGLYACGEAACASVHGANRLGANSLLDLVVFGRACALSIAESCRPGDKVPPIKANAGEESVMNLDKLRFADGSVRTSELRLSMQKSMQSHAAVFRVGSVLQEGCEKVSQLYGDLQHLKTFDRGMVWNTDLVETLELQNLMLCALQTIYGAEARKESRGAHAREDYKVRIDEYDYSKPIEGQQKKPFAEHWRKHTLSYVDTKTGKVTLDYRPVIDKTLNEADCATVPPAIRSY
# T1 sequence (P21913 31-282): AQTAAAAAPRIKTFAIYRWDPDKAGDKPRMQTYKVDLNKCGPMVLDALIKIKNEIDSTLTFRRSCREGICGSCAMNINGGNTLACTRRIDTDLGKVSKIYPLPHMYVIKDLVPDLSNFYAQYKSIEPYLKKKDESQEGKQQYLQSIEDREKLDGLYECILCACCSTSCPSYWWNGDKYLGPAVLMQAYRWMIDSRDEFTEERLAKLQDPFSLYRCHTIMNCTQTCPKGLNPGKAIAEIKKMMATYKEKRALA
# T1 sequence (Q641Z9 1-169): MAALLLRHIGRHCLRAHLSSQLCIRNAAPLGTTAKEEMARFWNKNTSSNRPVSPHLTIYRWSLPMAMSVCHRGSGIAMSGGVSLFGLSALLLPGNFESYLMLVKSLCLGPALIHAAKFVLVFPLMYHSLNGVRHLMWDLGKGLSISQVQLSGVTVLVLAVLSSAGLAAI
# T1 sequence (Q6PCT8 57-159): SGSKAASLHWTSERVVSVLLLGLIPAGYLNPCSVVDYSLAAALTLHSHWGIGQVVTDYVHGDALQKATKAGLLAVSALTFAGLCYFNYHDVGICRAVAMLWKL
# [3] = test system: isolated rat liver mitochondria; experiment: Oxygen consumption, Clark-type oxygen electrode; assay type: biochemical
# [4] = test system: Caenorhabditis elegans (Bristol N2); conditions: Bristol N2 (wild type), Caenorhabditis elegans, in vivo
# [5] = test system: mitochondrial respiratory chain complex IV; assay type: biochemical, rat
# [6] = test system: hNSC; experiment: MMP assay in human neural stem cells (hNSC); assay type: cell-based; conditions: Homo sapiens, Neural stem cell, 1 h, read-out: hNSC IC50 (MMP)
# [7] = test system: HepG2 cells; experiment: ROS-Glo hydrogen peroxide (ROS) assay; assay type: cell-based, human; conditions: Homo sapiens, HepG2, 2 h, read-out: ROS (HepG2) EC50
# [8] = test system: mitochondrial respiratory chain complex III; assay type: biochemical, rat
# [9] = test system: HepG2 cells; experiment: cells; conditions: Homo sapiens
# [10] = test system: mitochondrial respiratory chain complex V; assay type: biochemical, rat
# [11] = test system: Caenorhabditis elegans (Bristol N2); experiment: C. elegans larval development and growth assay
# [12] = test system: HepG2 cells; experiment: Intracellular ATP content (cell viability) assay; assay type: cell-based, human; conditions: Homo sapiens, HepG2, 40 h
# [13] = test system: mitochondrial respiratory chain complex I; assay type: biochemical, rat
# [14] = test system: HepG2 cells; conditions: cited from earlier work
# [15] = test system: rat primary hepatocytes; experiment: MMP assay in rat primary hepatocytes; conditions: Rattus norvegicus, Hepatocyte
# [16] = test system: Nrf2/ARE (ARE-bla HepG2 cells); experiment: ARE β-lactamase reporter gene assay; assay type: cell-based, human; conditions: Homo sapiens, HepG2, 16 h, read-out: ARE (HepG2) EC50
# [17] = test system: Caenorhabditis elegans strain PE255; experiment: In vivo C. elegans ATP status assay; conditions: Caenorhabditis elegans, read-out: LEC LUM: lowest effect concentration for luminescence, a measure of nematode ATP content
# [18] = test system: HeLa cells expressing YFP-Parkin; experiment: Parkin translocation assay; assay type: cell-based, human
smiles,measurement,setting,value
"C=C(C)[C@H]1Cc2c(ccc3c2O[C@@H]2COc4cc(OC)c(OC)cc4[C@@H]2C3=O)O1 [Rotenone, reference compound]",MMP assays efficacy (%) Rat Hepatocytes,[1],-86+39%
same,Rat hepatocytes (efficacy) (MMP),[1],0.36±0.22 ( −85.9±10.7 ) %
same,Complex II % inhibition (activity call),[2],Inactive
same,Potential Mechanism,[3],Inhibitor (at complex I)
same,effect on mitochondrial respiration (in words),[3],"only inhibited glutamate/malate-driven respiration, but not succinate-driven respiration"
same,"I-ADP, % of control (O2 consumption rate)",[3]; 0.00128 µM,91 (44.7) % of control
same,"I-sub, % of control (O2 consumption rate)",[3]; 0.00128 µM,113 (15.6) % of control
same,"II-ADP, % of control (O2 consumption rate)",[3]; 0.00128 µM,98 (87.5) % of control
same,"II-sub, % of control (O2 consumption rate)",[3]; 0.00128 µM,94 (25.3) % of control
same,"I-ADP, % of control (O2 consumption rate)",[3]; 0.0064 µM,81 (40.2) % of control
same,"I-sub, % of control (O2 consumption rate)",[3]; 0.0064 µM,114 (15.8) % of control
same,"II-ADP, % of control (O2 consumption rate)",[3]; 0.0064 µM,83 (74.3) % of control
same,"II-sub, % of control (O2 consumption rate)",[3]; 0.0064 µM,56 (15.2) % of control
same,"I-ADP, % of control (O2 consumption rate)",[3]; 0.032 µM,27 (13.1) % of control
same,"I-sub, % of control (O2 consumption rate)",[3]; 0.032 µM,86 (11.9) % of control
same,"II-ADP, % of control (O2 consumption rate)",[3]; 0.032 µM,97 (86.1) % of control
same,"II-sub, % of control (O2 consumption rate)",[3]; 0.032 µM,79 (21.4) % of control
same,"I-ADP, % of control (O2 consumption rate)",[3]; 0.16 µM,20 (9.9) % of control
same,"I-sub, % of control (O2 consumption rate)",[3]; 0.16 µM,71 (9.9) % of control
same,"II-ADP, % of control (O2 consumption rate)",[3]; 0.16 µM,107 (95.0) % of control
same,"II-sub, % of control (O2 consumption rate)",[3]; 0.16 µM,97 (26.3) % of control
same,"I-ADP, % of control (O2 consumption rate)",[3]; 0.8 µM,18 (8.9) % of control
same,"I-sub, % of control (O2 consumption rate)",[3]; 0.8 µM,64 (8.9) % of control
same,"II-ADP, % of control (O2 consumption rate)",[3]; 0.8 µM,99 (88.3) % of control
same,"II-sub, % of control (O2 consumption rate)",[3]; 0.8 µM,99 (26.9) % of control
same,"I-ADP, % of control (O2 consumption rate)",[3]; 4 µM,19 (9.5) % of control
same,"I-sub, % of control (O2 consumption rate)",[3]; 4 µM,64 (8.8) % of control
same,"II-ADP, % of control (O2 consumption rate)",[3]; 4 µM,97 (86.3) % of control
same,"II-sub, % of control (O2 consumption rate)",[3]; 4 µM,97 (26.2) % of control
same,"I-ADP, % of control (O2 consumption rate)",[3]; 20 µM,18 (8.8) % of control
same,"I-sub, % of control (O2 consumption rate)",[3]; 20 µM,62 (8.6) % of control
same,"II-ADP, % of control (O2 consumption rate)",[3]; 20 µM,95 (84.3) % of control
same,"II-sub, % of control (O2 consumption rate)",[3]; 20 µM,107 (28.9) % of control
same,inhibitory effect at (concentration) on larval growth in the C. elegans assay,[4],0.05 µM
same,Complex IV % inhibition (activity call),[5],Inactive
same,IC50,[6],23700 nM
same,EC50,[7],4040 nM
same,Complex III % inhibition (activity call),[8],Inactive
same,IC50,"[9]; HepG2, 1 h, read-out: HepG2 IC50 Galactose (MMP)",31.8 µM
same,IC50,"[9]; HepG2, 1 h, read-out: HepG2 IC50 Glucose (MMP)",44.7 µM
same,IC50,"[9]; HepG2, read-out: MMP assays IC50 (µM) HepG2",0.0123 µM
same,Emax,"[9]; HepG2, read-out: MMP assays efficacy (%) HepG2",95%
same,Complex V % inhibition (activity call),[10],Inactive
same,larval growth effect at 0.5μM,[11]; 0.5 µM,severe larval growth arrest
same,minimal effective concentration,"[11]; Caenorhabditis elegans, read-out: LEC EXT: lowest effect concentration for extinction, a measure of nematode size",0.05 µM
same,IC50,"[12]; read-out: ATP (HepG2, galactose) IC50",1630 nM
same,IC50,"[12]; read-out: ATP (HepG2, glucose) IC50",1050 nM
same,inhibitory effect on Complex I at (concentration),[13],0.032 µM
same,Complex I % inhibition,[13]; at 0.032μM,37.5±3.32 at 0.032μM %
same,MMP assays efficacy (%) qHTS-HepG2,[14],-104±7%
same,IC50,"[14]; read-out: MMP assays IC50 (µM), qHTS-HepG2",17.4 ± 1.94 µM
same,IC50,"[15]; 1 h, read-out: Rat hepatocytes IC50 (MMP)",0.36 µM
same,IC50,[15]; read-out: MMP assays IC50 (µM) Rat Hepatocytes,0.2 ± 0.3 µM
same,EC50,[16],50 ± 20 nM
same,minimal effective concentration,[17],0.5 µM
same,Parkin recruitment,[18],Inactive
same,Parkin translocation into mitochondria (in words),[18]; 3 h,did not induce Parkin translocation
